In patent US7981861B2, “Method of performing angioplasty with a GLP-1 molecule” (Amylin Pharmaceuticals, Inc., priority 2000, dated 2011):
“Also recorded” adds a separate entry of the source.

What was measured:
Wistar rats = assay: LAD coronary artery occlusion (25 min) and 2-hour reperfusion, infarct size in anesthetized rats; format: in vivo, rat
Method: Wistar rats were anesthetized with thiopentone sodium. The left anterior descending (LAD) coronary artery was occluded. After 25 minutes of occlusion, reperfusion was allowed for 2 hours. This animal model has been described previously. Zacharowski, et al., Br. J. Pharmacol. 128; 945-952 (1999).
GLP-1 (1.5 μg/kg/min) was infused into anesthetized rats (n=10), commencing 10 minutes prior to reperfusion and continuing throughout the 2-hour reperfusion. Controls were sham operated with no occlusion (n=7), LAD occlusion+reperfusion+administration of saline (n=12), and LAD occlusion and reperfusion with a buffer of 10 mM sodium acetate, 5.05% D-mannitol, pH 4.5, (“vehicle”) at 1.5 mL/kg/hour (n=10).
Following reperfusion, the coronary artery was reoccluded, and Evans Blue dye (4 ml, 2% w/v) was injected into the left ventricle of the heart via a right carotid artery cannula. Evans Blue stains perfused myocardium, while occluded vascular bed remains uncolored. Animals were then killed by anesthetic overdose and the hearts were removed for examination. Hearts were sectioned and the right ventricular wall was removed. The area at risk (pink) was separated from the non-ischemic tissue (blue). The area at risk (pink) was then cut into smaller pieces and stained with p-nitroblue tetrazolium (NBT; 0.5 mg/ml) for 20 min. at 37° C. In the presence of intact dehydrogenase enzyme systems (viable myocardium), NBT forms a dark blue compound. Areas of necrosis lack the enzyme and remain unstained. Tissue was separated according to staining and weighed to determine infarct size as a percentage of the area at risk.

dogs = assay: 10-minute left circumflex coronary (LCx) occlusion/reperfusion, myocardial stunning in dogs; format: in vivo, dog; settings: GLP-1 infusion for 24 hours beginning 1 minute prior to reperfusion
Method: Two dogs were studied at baseline before, during, and for 6 hours after a 10-minute complete left circumflex coronary (LCx) occlusion. Each dog underwent occlusion/reperfusion in the presence and absence of GLP-1 infusion for 24 hours, beginning 1 minute prior to reperfusion. GLP-1 infusion enhanced the recovery of ventricular wall regional dysfunction following 10 minutes of coronary artery occlusion.

GLP-1
infarct size as a percentage of the area at risk (Wistar rats; GLP-1 1.5 μg/kg/min infusion from 10 minutes prior to reperfusion and throughout 2-hour reperfusion, n=10, vehicle 46±4%, saline 50±3%): 31±4%
reduction in infarct size compared with the vehicle group (Wistar rats; GLP-1 1.5 μg/kg/min infusion, statistically significant (p<0.05)): approximately 33%
reduction of infarct size (summary statement) (Wistar rats; GLP-1 during last 10 min. of 25 min. ischemia and throughout 2-hour reperfusion, rats): 30%
hemodynamics (Wistar rats; rats, GLP-1 during last 10 min. of ischemia and throughout 2-hour reperfusion): significantly improved
stunning period during reperfusion after subcritical ischemia (dogs; dogs): significantly reduced; also recorded: reduced stunning
recovery of ventricular wall regional dysfunction following 10 minutes of coronary artery occlusion (dogs; two dogs): enhanced
